Reference: patent US9073821B2, “Hydroxamic acid derivative” (priority 2010, dated 2015)

Target: Pseudomonas aeruginosa LpxC enzyme (Pseudomonas aeruginosa (strain ATCC 15692 / DSM 22644 / CIP 104116 / JCM 14847 / LMG 12228 / 1C / PRS 101 / PAO1), UniProt P47205)
Test: biochemical
Assay type: biochemical
Conditions: class symbols A/B/C by IC50; Table 3; read-out: Enzyme inhibitory activity (inhibitory activity on Pseudomonas aeruginosa LpxC enzyme)

IC50 [µM]	Compound
0.01 to 0.1	CNC(=O)C(C(=O)NO)N(C)C(=O)c1ccc(C#Cc2ccc(CN3CC4(CCC4)C3)cc2)cc1 (centres unmarked) [Compound 524, 2-{[(4-{[4-(2-azaspiro[3.3]hept-2-ylmethyl)phenyl]ethynyl}phenyl)carbonyl](methyl)amino}-N-hydroxy-N′-methylpropanediamide]
< 0.01	CCOC1CN(Cc2ccc(C#Cc3ccc(C(=O)N(C)C(C(=O)NC)C(=O)NO)cc3)c(C)c2)C1 (centres unmarked) [Compound 568, 2-[{[4-({4-[(3-ethoxyazetidin-1-yl)methyl]-2-methylphenyl}ethynyl)phenyl]carbonyl}(methyl)amino]-N-hydroxy-N′-methylpropanediamide]
< 0.01	CNC(=O)[C@@](C)(C(=O)NO)N(C)C(=O)c1ccc(C#Cc2coc(C)n2)cc1 [Compound 575, (2S)-N-hydroxy-N′,2-dimethyl-2-[methyl({4-[(2-methyl-1,3-oxazol-4-yl)ethynyl]phenyl}carbonyl)amino]propanediamide]

Same assay, conditions: inhibitory activity on Pseudomonas aeruginosa LpxC enzyme, class symbols A/B/C; read-out: Enzyme inhibitory activity

IC50 [µM]	Compound
0.01 to 0.1	CNC(=O)C(C)(NC(=O)c1ccc(C#Cc2ccc(CN3CCCOCC3)cc2)cc1)C(=O)NO (centres unmarked) [Compound 380, N-hydroxy-N′,2-dimethyl-2-{[(4-{[4-(1,4-oxazepan-4-ylmethyl)phenyl]ethynyl}phenyl)carbonyl]amino}propanediamide]
0.01 to 0.1	CCCCc1ccc(-c2ccc(C(=O)N(C)C(C(=O)NC)C(=O)NO)cc2)cn1 (centres unmarked) [Compound 474, 2-[{[4-(6-butylpyridin-3-yl)phenyl]carbonyl}(methyl)amino]-N-hydroxy-N′-methylpropanediamide]
0.01 to 0.1	CNC(=O)C(C(=O)NO)N(C)C(=O)c1ccc(-c2ccc3c(c2)cc(CN2CCOCC2)n3C)cc1 (centres unmarked) [Compound 46, N-hydroxy-N′-methyl-2-(methyl {4-[1-methyl-2-(morpholin-4-ylmethyl)-1H-indol-5-yl]benzoyl}amino)propanediamide]
0.01 to 0.1	CNC(=O)C(C(=O)NO)N(C(=O)c1ccc(-c2ccc(OCCO)cc2)cc1)C1CC1 (centres unmarked) [Compound 154, 2-(cyclopropyl {[4′-(2-hydroxyethoxy)biphenyl-4-yl]carbonyl}amino)-N-hydroxy-N′-methylpropanediamide]
0.01 to 0.1	CNC(=O)C(C(=O)NO)N(C)C(=O)c1ccc(-c2ccc(OC)nc2)cc1 (centres unmarked) [Compound 449, N-hydroxy-2-[{[4-(6-methoxypyridin-3-yl)phenyl]carbonyl}(methyl)amino]-N′-methylpropanediamide]
< 0.01	CNC(=O)C(C(=O)NO)N(C)C(=O)c1ccc(-c2ccc(C#CCN3CCOCC3)cc2)cc1 (centres unmarked) [Compound 390, N-hydroxy-N′-methyl-2-[methyl({4′-[3-(morpholin-4-yl)prop-1-yn-1-yl]biphenyl-4-yl}carbonyl)amino]propanediamide]
0.01 to 0.1	CNC(=O)C(C(=O)NO)N(C)C(=O)c1ccc(C#Cc2ccc(CN(C)C)cc2)cc1 (centres unmarked) [Compound 202, 2-{[4-({4-[(dimethylamino)methyl]phenyl}ethynyl)benzoyl](methyl)amino}-N-hydroxy-N′-methylpropanediamide]
> 0.1	CNC(=O)[C@](C)(C(=O)NO)N(C)C(=O)c1ccc(-c2ccccc2)cc1 [Compound 343, (2R)-2-[(biphenyl-4-ylcarbonyl)(methyl)amino]-N-hydroxy-N′,2-dimethylpropanediamide]
0.01 to 0.1	CNC(=O)C(C(=O)NO)N(C)C(=O)c1ccc(-c2ccnc(C)c2)cc1 (centres unmarked) [Compound 451, N-hydroxy-N′-methyl-2-(methyl {[4-(2-methylpyridin-4-yl)phenyl]carbonyl}amino)propanediamide]
< 0.01	CNC(=O)C(C(=O)NO)N(C)C(=O)c1ccc(-c2ccc(-c3ccc(CN4CCOCC4)o3)cc2)cc1 (centres unmarked) [Compound 479, N-hydroxy-N′-methyl-2-[methyl({4′-[5-(morpholin-4-ylmethyl)furan-2-yl]biphenyl-4-yl}carbonyl)amino]propanediamide]
0.01 to 0.1	CNC(=O)C(C(=O)NO)N(C)C(=O)c1ccc(N2Cc3ccccc3C2)cc1 (centres unmarked) [Compound 250, 2-{[4-(1,3-dihydro-2H-isoindol-2-yl)benzoyl](methyl)amino}-N-hydroxy-N′-methylpropanediamide]
< 0.01	CNC(=O)C(C(=O)NO)N(C)C(=O)c1ccc(C#CC#Cc2ccc(CNCC(C)(C)C)cc2)cc1 (centres unmarked) [Compound 493, 2-[({4-[4-(4-{[(2,2-dimethylpropyl)amino]methyl}phenyl)buta-1,3-diyn-1-yl]phenyl}carbonyl)(methyl)amino]-N-hydroxy-N′-methylpropanediamide]
0.01 to 0.1	CNC(=O)C(C(=O)NO)N(C)C(=O)c1ccc(C#Cc2ccc(C(C)N)cc2)cc1 (centres unmarked) [Compound 358, 2-{[(4-{[4-(1-aminoethyl)phenyl]ethynyl}phenyl)carbonyl](methyl)amino}-N-hydroxy-N′-methylpropanediamide]
> 0.1	CNC(=O)C(C(=O)NO)N(C)C(=O)c1ccc(OC(F)(F)C(F)F)cc1 (centres unmarked) [Compound 47, N-hydroxy-N′-methyl-2-{methyl[4-(1,1,2,2-tetrafluoroethoxy)benzoyl]amino}propanediamide]
0.01 to 0.1	CCCCCCCCOc1ccc(C(=O)N(C)C(C(=O)NC)C(=O)NO)cc1 (centres unmarked) [Compound 25, N-hydroxy-N′-methyl-2-{methyl[4-(octyloxy)benzoyl]amino}propanediamide]
0.01 to 0.1	CNC(=O)C(C(=O)NO)N(C)C(=O)c1ccc(CCc2ccc(CCN3CCCOCC3)cc2)cc1 (centres unmarked) [Compound 210, N-hydroxy-N′-methyl-2-{methyl[4-(2-{4-[2-(1,4-oxazepan-4-yl)ethyl]phenyl}ethyl)benzoyl]amino}propanediamide]

IC50 [µM]	Compound
< 0.01	CNC(=O)C(C(=O)NO)N(C)C(=O)c1ccc(C#Cc2ccc(CN3CC4(COC4)C3)cc2)cc1 (centres unmarked) [Compound 322, N-hydroxy-N′-methyl-2-{methyl[(4-{[4-(2-oxa-6-azaspiro[3.3]hept-6-ylmethyl)phenyl]ethynyl}phenyl)carbonyl]amino}propanediamide]
0.01 to 0.1	CNC(=O)C(C(=O)NO)N(C)C(=O)c1ccc(-c2ccc(NC)c(OC)c2)cc1 (centres unmarked) [Compound 50, N-hydroxy-2-[{[3′-methoxy-4′-(methylamino)biphenyl-4-yl]carbonyl}(methyl)amino]-N′-methylpropanediamide]
< 0.01	O=C(NC(C(=O)NO)C(=O)NCc1ccco1)c1ccc(-c2ccc(OCCO)cc2)cc1 (centres unmarked) [Compound 12, N-(furan-2-ylmethyl)-N′-hydroxy-2-({[4′-(2-hydroxyethoxy)biphenyl-4-yl]carbonyl}amino)propanediamide]
0.01 to 0.1	CNC(=O)C(NC(=O)c1ccc(-c2ccc(OCCOCCOCCO)cc2)cc1)C(=O)NO (centres unmarked) [Compound 13, N-hydroxy-2-{[(4′-{2-[2-(2-hydroxyethoxy)ethoxy]ethoxy}biphenyl-4-yl)carbonyl]amino}-N′-methylpropanediamide]
< 0.01	CNC(=O)C(C(=O)NO)N(C)C(=O)c1ccc(C#Cc2ccc(CN3CCOCC3)cc2)cc1 (centres unmarked) [Compound 167, N-hydroxy-N′-methyl-2-[methyl(4-{[4-(morpholin-4-ylmethyl)phenyl]ethynyl}benzoyl)amino]propanediamide]
> 0.1	CNC(=O)C(C(=O)NO)N(C)C(=O)c1ccc(-c2cc(C)ccn2)cc1 (centres unmarked) [Compound 452, N-hydroxy-N′-methyl-2-(methyl {[4-(4-methylpyridin-2-yl)phenyl]carbonyl}amino)propanediamide]
< 0.01	CNC(=O)C(C(=O)NO)N(C)C(=O)c1ccc(-c2ccc(OCCCNc3ccccc3)cc2)cc1 (centres unmarked) [Compound 75, N-hydroxy-N′-methyl-2-[methyl({4′-[3-(phenylamino)propoxy]biphenyl-4-yl}carbonyl)amino]propanediamide]
0.01 to 0.1	CCNC(=O)C(C(=O)NO)N(C)C(=O)c1ccc(-c2ccccc2)cc1 (centres unmarked) [Compound 242, 2-[(biphenyl-4-ylcarbonyl)(methyl)amino]-N-ethyl-N′-hydroxypropanediamide]
< 0.01	CNC(=O)C(C(=O)NO)N(C)C(=O)c1ccc(-c2ccc3occc3c2)cc1 (centres unmarked) [Compound 184, 2-{[4-(1-benzofuran-5-yl)benzoyl](methyl)amino}-N-hydroxy-N′-methylpropanediamide]
< 0.01	CNC(=O)C(C(=O)NO)N(C)C(=O)c1ccc(-c2ccc(OCCCN3CCSCC3)cc2)cc1 (centres unmarked) [Compound 288, N-hydroxy-N′-methyl-2-[methyl({4′-[3-(thiomorpholin-4-yl)propoxy]biphenyl-4-yl}carbonyl)amino]propanediamide]
< 0.01	CNC(=O)C(C(=O)NO)N(C)C(=O)c1ccc(-c2ccc(NC)c(F)c2)cc1 (centres unmarked) [Compound 38, 2-[{[3′-fluoro-4′-(methylamino)biphenyl-4-yl]carbonyl}(methyl)amino]-N-hydroxy-N′-methylpropanediamide]
< 0.01	CNC(=O)C(C(=O)NO)N(C)C(=O)c1ccc(C#CC#Cc2ccoc2)cc1 (centres unmarked) [Compound 484, 2-[({4-[4-(furan-3-yl)buta-1,3-diyn-1-yl]phenyl}carbonyl)(methyl)amino]-N-hydroxy-N′-methylpropanediamide]
< 0.01	CNC(=O)C(C(=O)NO)N(C)C(=O)c1ccc(-c2ccc(N3CC(OC)C3)cc2)cc1 (centres unmarked) [Compound 229, N-hydroxy-2-[{[4′-(3-methoxyazetidin-1-yl)biphenyl-4-yl]carbonyl}(methyl)amino]-N′-methylpropanediamide]
< 0.01	CNC(=O)C(C)(C(=O)NO)N(C)C(=O)c1ccc(-c2ccc(C)cc2)cc1 (centres unmarked) [Compound 349, N-hydroxy-N′,2-dimethyl-2-{methyl[(4′-methylbiphenyl-4-yl)carbonyl]amino}propanediamide]
0.01 to 0.1	CNC(=O)C(C(=O)NO)N(C)C(=O)c1ccc(C#Cc2cccc(CN3CCOCC3)c2)cc1 (centres unmarked) [Compound 375, N-hydroxy-N′-methyl-2-{methyl[(4-{[3-(morpholin-4-ylmethyl)phenyl]ethynyl}phenyl)carbonyl]amino}propanediamide]
0.01 to 0.1	CNC(=O)C(C(=O)NO)N(C)C(=O)c1ccc(-c2cccc(OC)c2)cc1 (centres unmarked) [Compound 279, N-hydroxy-2-{[(3′-methoxybiphenyl-4-yl)carbonyl](methyl)amino}-N′-methylpropanediamide]
